For assay [1], the system named is Doritaenopsis casablanca Joy × Phalaenopsis taida Pinlong. In words: Flowering rates with bio-fertilizer and plant growth substance. Type of assay: in vivo. To be noted: room temperature. As for the experimental part: (§1) Phalaenopsis amabili and Doritaenopsis casablanca Joy×Phalaenopsis taida Pinlong are treated with either bio-fertilizer composition Mb or plant growth regulators Gibberellic Acid (GA3), or both. The flowering rates are observed after incubation.

Assay [2] deals with Phalaenopsis amabilis. The description is as above. Format: in vivo. To be noted: room temperature. As for the experimental part: as §1

For the compound `C=C1C[C@]23C[C@@]1(O)CC[C@H]2[C@@]12C=C[C@H](O)[C@@](C)(C(=O)O1)[C@H]2[C@@H]3C(=O)O` [NM + GA3, Gibberellic Acid], the flowering rate in assay [1] turned out to be 71%; in assay [2], 75%.
